pIC50: −log10 of the molar value.
System: 885724-159-R-J1-PDC complex spheroid viability
Test: Anticancer human tumor 885724-159-R-J1-PDC patient-derived pancreatic adenocarcinoma cell line growth inhibition [GQUAD]
Details: for pIC50: curve of first compound; for viability, T/C: stronger effect = lower value; active = viability on the fitted dose curve at most 10% of control; inactive = the rest
Procedure, shortened: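 Viability of tumor cells grown as complex spheroids with endothelial and stromal cells, exposed to drug combinations. Top concentration at or near clinical Cmax (else 10 microM), diluted in half-log increments.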

[1] = second compound 0.0316 µM, first compound 0.0316 µM
[2] = second compound 0.0316 µM, first compound 0.1 µM
[3] = second compound 0.0316 µM, first compound 0.316 µM
[4] = second compound 0.0316 µM, first compound 1 µM
[5] = second compound 0.0316 µM, first compound 3.16 µM
[6] = second compound 0.0316 µM, first compound 10 µM
[7] = second compound 0.1 µM, first compound 0.0316 µM
[8] = second compound 0.1 µM, first compound 0.1 µM
[9] = second compound 0.1 µM, first compound 0.316 µM
[10] = second compound 0.1 µM, first compound 1 µM
[11] = second compound 0.1 µM, first compound 3.16 µM
[12] = second compound 0.1 µM, first compound 10 µM
[13] = second compound 0.316 µM, first compound 0.0316 µM
[14] = second compound 0.316 µM, first compound 0.1 µM
[15] = second compound 0.316 µM, first compound 0.316 µM
[16] = second compound 0.316 µM, first compound 1 µM
[17] = second compound 0.316 µM, first compound 3.16 µM
[18] = second compound 0.316 µM, first compound 10 µM
[19] = second compound 1 µM, first compound 0.0316 µM
[20] = second compound 1 µM, first compound 0.1 µM
[21] = second compound 1 µM, first compound 0.316 µM
[22] = second compound 1 µM, first compound 1 µM
[23] = second compound 1 µM, first compound 3.16 µM
[24] = second compound 1 µM, first compound 10 µM
[25] = second compound 3.16 µM, first compound 0.0316 µM
[26] = second compound 3.16 µM, first compound 0.1 µM
[27] = second compound 3.16 µM, first compound 0.316 µM
[28] = second compound 3.16 µM, first compound 1 µM
[29] = second compound 3.16 µM, first compound 3.16 µM
[30] = second compound 3.16 µM, first compound 10 µM
[31] = second compound 10 µM, first compound 0.0316 µM
[32] = second compound 10 µM, first compound 0.1 µM
[33] = second compound 10 µM, first compound 0.316 µM
[34] = second compound 10 µM, first compound 1 µM
[35] = second compound 10 µM, first compound 3.16 µM
[36] = second compound 10 µM, first compound 10 µM
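Note: spheroids exposed to agents for seven days before readout.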
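Throughout, for viability, T/C: percent of vehicle control viability where 100% = DMSO wells.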

C=CCn1c(=O)c2cnc(Nc3ccc(N4CCN(C)CC4)cc3)nc2n1-c1cccc(C(C)(C)O)n1 + CN(C)c1ccc(Nc2c3ccc(NC(=O)CCN4CCCC4)cc3nc3cc(NC(=O)CCN4CCCC4)ccc23)cc1
6.15: pIC50 (second compound 3.16 µM)
inactive: viability, T/C [1] 99% | viability, T/C [2] 86.2% | viability, T/C [3] 74.4% | viability, T/C [4] 81.6% | viability, T/C [5] 72.4% | viability, T/C [6] 73% | viability, T/C [7] 95.4% | viability, T/C [8] 83.6% | viability, T/C [9] 79.3% | viability, T/C [10] 73.7% | viability, T/C [11] 71.3% | viability, T/C [12] 72.5% | viability, T/C [13] 92% | viability, T/C [14] 81.8% | viability, T/C [15] 69.5% | viability, T/C [16] 63.4% | viability, T/C [17] 57.7% | viability, T/C [18] 52.3% | viability, T/C [19] 83.5% | viability, T/C [20] 66.7% | viability, T/C [21] 60.4% | viability, T/C [22] 44.1% | viability, T/C [23] 57.2% | viability, T/C [24] 47.3% | viability, T/C [25] 82.6% | viability, T/C [26] 60.7% | viability, T/C [27] 61.2% | viability, T/C [28] 40.7% | viability, T/C [29] 52.1% | viability, T/C [30] 38.7% | viability, T/C [31] 68.3% | viability, T/C [32] 69.5% | viability, T/C [33] 56.7% | viability, T/C [34] 50.4% | viability, T/C [35] 45.7% | viability, T/C [36] 19.6%
5.42: pIC50 (second compound 1 µM)
< 5.00: pIC50 (second compound 0.0316 µM) | pIC50 (second compound 0.1 µM) | pIC50 (second compound 0.316 µM)
5.87: pIC50 (second compound 10 µM)

COc1ncnc(C2CC2)c1-c1ncc2cnn(Cc3ccc(-c4nc(C(F)(F)F)cn4C(C)C)cc3)c2n1 + CN(C)c1ccc(Nc2c3ccc(NC(=O)CCN4CCCC4)cc3nc3cc(NC(=O)CCN4CCCC4)ccc23)cc1
inactive: viability, T/C [1] 96.8% | viability, T/C [2] 101% | viability, T/C [3] 85.6% | viability, T/C [4] 86.9% | viability, T/C [5] 81.4% | viability, T/C [6] 105% | viability, T/C [7] 103% | viability, T/C [8] 88.2% | viability, T/C [9] 96.9% | viability, T/C [10] 98% | viability, T/C [11] 95% | viability, T/C [12] 94.5% | viability, T/C [13] 97.6% | viability, T/C [14] 86.1% | viability, T/C [15] 82.3% | viability, T/C [16] 80.1% | viability, T/C [17] 101% | viability, T/C [18] 95.7% | viability, T/C [19] 77.5% | viability, T/C [20] 70.4% | viability, T/C [21] 81.1% | viability, T/C [22] 67.7% | viability, T/C [23] 79.3% | viability, T/C [24] 83.1% | viability, T/C [25] 79.2% | viability, T/C [26] 76.7% | viability, T/C [27] 68.8% | viability, T/C [28] 58% | viability, T/C [29] 77.4% | viability, T/C [30] 78.1% | viability, T/C [31] 61.3% | viability, T/C [32] 66.5% | viability, T/C [33] 73.5% | viability, T/C [34] 70.5% | viability, T/C [35] 63.1% | viability, T/C [36] 47.8%
< 5.00: pIC50 (second compound 0.0316 µM) | pIC50 (second compound 0.1 µM) | pIC50 (second compound 0.316 µM) | pIC50 (second compound 1 µM) | pIC50 (second compound 3.16 µM) | pIC50 (second compound 10 µM)
